Source: patent publication US20100105768A1, “MOLD-INHIBITING METHOD AND COMPOSITION” (priority 2008, published 2010)

How the values were obtained:
[1] = system: mold/stain fungi; experiment: Dip treated fresh cut white pine blocks in sealed bags, visual mold and stain growth rating (Example 5); type: cell-based; conditions: 1% dip solution; for Visual evaluation Week 1 / Visual evaluation Week 2 / Visual evaluation Week 3 / Visual evaluation Week 4 / Visual evaluation Week 5 / Visual evaluation Week 6 / Visual evaluation Week 8: one minute, white pine blocks, no inoculation; for Efficacy against mold/stain fungi (in words): 8 weeks
From the text: Fresh cut white pine blocks (7.6×6.35×3.8 cm^3) were dipped in the prepared test formulation for one minute. The individual dipped wood block was placed in a plastic sandwich bag and the plastic bag was sealed to retain the moisture of the test wood blocks. No mold or stain fungi were inoculated on the test blocks. […] The test was completed in 8 weeks.

[2] = system: A. niger and P. citrinum; experiment: Visual mold growth rating on gypsum cuboids placed on inoculated Sabouraud's Dextrose Agar (Example 2); type: cell-based; conditions: for Visual evaluation Week 1 / Visual evaluation Week 2 / Visual evaluation Week 3 / Visual evaluation Week 4: 26° C., 70% relative humidity
From the text: Gypsum cuboids (30×40×25 mm^3) were made with the addition of the following formulations: • Sodium dehydroacetic acid (Na-DHA): 2500 ppm and 5000 ppm. • Carboquat® 250T ^3: 2500 ppm and 5000 ppm. • Carboquat® 250T/DHA 10:4 (wt./wt.): 2500 ppm and 5000 ppm. • ^3 Carboquat® 250T is an essentially aqueous solution containing approx. 50% of a mixture of carbonate and bicarbonate of didecyldimethylammonium. Carboquat® 250T is available from Lonza Inc., Allendale N.J.
Glass containers with Sabouraud's Dextrose Agar (SDA) on the bottom were prepared. Freshly-made spore suspensions of A. niger and P. citrinum were spread on the surface of SDA. The gypsum cuboids were air-dried and then placed on the top of the inoculated SDA. The containers were covered by aluminum foil and placed in an incubator with pre-set temperature of 26° C. and relative humidity of 70%. The test was completed at 4 weeks. Visual observation of mold growth on the gypsum cuboids was recorded weekly using the same rating system as in Example 1.

SMILES | Visual evaluation Week 1 [1] | Visual evaluation Week 2 [1] | Visual evaluation Week 3 [1] | Visual evaluation Week 4 [1] | Visual evaluation Week 5 [1] | Visual evaluation Week 6 [1] | Visual evaluation Week 8 [1] | Efficacy against mold/stain fungi (in words) [1] | Visual evaluation Week 1 ([2]; 2500 ppm in gypsum cuboid) | Visual evaluation Week 2 ([2]; 2500 ppm in gypsum cuboid) | Visual evaluation Week 3 ([2]; 2500 ppm in gypsum cuboid) | Visual evaluation Week 4 ([2]; 2500 ppm in gypsum cuboid) | Mold growth on gypsum cuboids (in words) ([2]; 5000 ppm) | Visual evaluation Week 1 ([2]; 5000 ppm in gypsum cuboid) | Visual evaluation Week 2 ([2]; 5000 ppm in gypsum cuboid) | Visual evaluation Week 3 ([2]; 5000 ppm in gypsum cuboid) | Visual evaluation Week 4 ([2]; 5000 ppm in gypsum cuboid)
O=C([O-])c1ccccc1.[Na+] [Na-Benzoate] | 2 (Medium mold growth (6-25% mold coverage)) | 4 (Severe mold growth (>50% mold coverage)) | 4 (Severe mold growth (>50% mold coverage)) | 4 (Severe mold growth (>50% mold coverage)) | 4 (Severe mold growth (>50% mold coverage)) | 4 (Severe mold growth (>50% mold coverage)) | 4 (Severe mold growth (>50% mold coverage)) | no efficacy | – | – | – | – | – | – | – | – | –
CC(=O)c1c([O-])cc(C)oc1=O.[Na+] [Na-DHA, Sodium dehydroacetic acid] | 0 | 0 | 0 | 0 | 1 (Slight mold growth (<5% mold coverage)) | 1 (Slight mold growth (<5% mold coverage)) | 2 (Medium mold growth (6-25% mold coverage)) | strong efficacy | 0 | 2 (Medium mold growth (6-25% mold coverage)) | 3 (Heavy mold growth (26-50% mold coverage)) | 3 (Heavy mold growth (26-50% mold coverage)) | no mold growth | 0 | 0 | 0 | 0
C/C=C/C=C/C(=O)[O-].[Na+] [Na-Sorbate] | 2 (Medium mold growth (6-25% mold coverage)) | 4 (Severe mold growth (>50% mold coverage)) | 4 (Severe mold growth (>50% mold coverage)) | 4 (Severe mold growth (>50% mold coverage)) | 4 (Severe mold growth (>50% mold coverage)) | 4 (Severe mold growth (>50% mold coverage)) | 4 (Severe mold growth (>50% mold coverage)) | no efficacy | – | – | – | – | – | – | – | – | –
